Results: US10722503B2, “Glitazones for topical application” (priority 2017, dated 2020)

Key:
SEB-1 sebocytes = assay: In vitro treatment of cultured sebocytes, intracellular lipids (ADIPORED fluorescence normalized to DAPI cell count); format: cell-based; conditions: formulation similar to that of Example 1, glitazone substituted for pioglitazone
Description: Cultured SEB-1 sebocytes (Xia et al., Dermato-Endocrinology, 1(2):92-95 (2009)) were treated with the pioglitazone formulation of Example 1. Sebocytes were cultured in 96 wells plates (2500 cells/well), until confluency. Plates were washed twice with warm sterile PBS and then incubated (at 37° C. and 5% CO2) for another 48 hours after treating them with the pioglitazone formulation in treatment media. After 48 hours, media was carefully removed from the plates and, after washing with PBS, ADIPORED™ reagent (Lonza Walkersville, Inc., Walkersville, Md.) was carefully added into each well. The plates were read for intracellular lipids using a spectrofluorometer. The lipid fluorescence was normalized against the total cell count that was performed using DAPI staining. Following treatment, the lipid content in the treated sebocytes was determined to have increased by 27% compared to control untreated sebocytes. The increased lipid content was confirmed by determining the expression of SREBP-1, a lipid synthesis transcription factor.

keratosis pilaris (KP) = assay: Topical treatment of keratosis pilaris (KP) in patients, severity grading; format: in vivo, human; conditions: formulation similar to that of Example 1, glitazone substituted for pioglitazone
Excerpt: Prior to treatment, the severity of the KP condition was graded. […]

COc1ccc(Oc2cc(N(C)CCOc3ccc(CC4SC(=O)NC4=O)cc3)ncn2)cc1 (stereo not drawn) [lobeglitazone]
results of Example 4 (sebocyte lipid content) repeated with another glitazone formulation (SEB-1 sebocytes): Results similar to those obtained in Examples 2 to 4 using pioglitazone
results of Examples 2 and 3 (KP treatment) repeated with another glitazone formulation (keratosis pilaris (KP)): Results similar to those obtained in Examples 2 to 4 using pioglitazone

O=C1NC(=O)C(Cc2ccc3cc(OCc4ccccc4F)ccc3c2)S1 (stereo not drawn) [netoglitazone]
results of Example 4 (sebocyte lipid content) repeated with another glitazone formulation (SEB-1 sebocytes): Results similar to those obtained in Examples 2 to 4 using pioglitazone
results of Examples 2 and 3 (KP treatment) repeated with another glitazone formulation (keratosis pilaris (KP)): Results similar to those obtained in Examples 2 to 4 using pioglitazone

COc1ccc2nc(COc3ccc(CC4SC(=O)NC4=O)cc3)n(C)c2c1 (stereo not drawn) [rivoglitazone]
results of Example 4 (sebocyte lipid content) repeated with another glitazone formulation (SEB-1 sebocytes): Results similar to those obtained in Examples 2 to 4 using pioglitazone
results of Examples 2 and 3 (KP treatment) repeated with another glitazone formulation (keratosis pilaris (KP)): Results similar to those obtained in Examples 2 to 4 using pioglitazone
